Measurements published in PMC6199744, “Development of Chemical Proteomics for the Folateome and Analysis of the Kinetoplastid Folateome” (ACS Infectious Diseases, 2018).
Values joined by “and” are separate entries in the source; they are usually repeats but may differ in a detail not shown here. Equal entries are not always repeated. Where two headings read alike, the source gives them in different places.

Assays:
Format in all cases: binding
[1] = target: T1, HeLa cell extract proteins (Homo sapiens, UniProt Q13155)
T1 construct: endogenous in cells; host or cells: HeLa cell extract
T1 sequence (Q13155 1-320): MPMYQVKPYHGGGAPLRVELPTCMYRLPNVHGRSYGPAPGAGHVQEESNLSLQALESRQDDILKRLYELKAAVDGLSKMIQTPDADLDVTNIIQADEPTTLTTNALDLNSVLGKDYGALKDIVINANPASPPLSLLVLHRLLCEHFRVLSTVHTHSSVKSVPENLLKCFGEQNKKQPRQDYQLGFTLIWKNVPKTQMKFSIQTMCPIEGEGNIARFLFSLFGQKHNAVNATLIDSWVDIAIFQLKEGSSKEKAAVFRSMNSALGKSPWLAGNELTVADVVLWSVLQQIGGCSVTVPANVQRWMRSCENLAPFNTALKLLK

[2] = target: T2, HeLa cell extract proteins (Homo sapiens, UniProt Q9Y5L0)
T2 construct: endogenous in cells; host or cells: HeLa cell extract
T2 sequence (Q9Y5L0 1-923): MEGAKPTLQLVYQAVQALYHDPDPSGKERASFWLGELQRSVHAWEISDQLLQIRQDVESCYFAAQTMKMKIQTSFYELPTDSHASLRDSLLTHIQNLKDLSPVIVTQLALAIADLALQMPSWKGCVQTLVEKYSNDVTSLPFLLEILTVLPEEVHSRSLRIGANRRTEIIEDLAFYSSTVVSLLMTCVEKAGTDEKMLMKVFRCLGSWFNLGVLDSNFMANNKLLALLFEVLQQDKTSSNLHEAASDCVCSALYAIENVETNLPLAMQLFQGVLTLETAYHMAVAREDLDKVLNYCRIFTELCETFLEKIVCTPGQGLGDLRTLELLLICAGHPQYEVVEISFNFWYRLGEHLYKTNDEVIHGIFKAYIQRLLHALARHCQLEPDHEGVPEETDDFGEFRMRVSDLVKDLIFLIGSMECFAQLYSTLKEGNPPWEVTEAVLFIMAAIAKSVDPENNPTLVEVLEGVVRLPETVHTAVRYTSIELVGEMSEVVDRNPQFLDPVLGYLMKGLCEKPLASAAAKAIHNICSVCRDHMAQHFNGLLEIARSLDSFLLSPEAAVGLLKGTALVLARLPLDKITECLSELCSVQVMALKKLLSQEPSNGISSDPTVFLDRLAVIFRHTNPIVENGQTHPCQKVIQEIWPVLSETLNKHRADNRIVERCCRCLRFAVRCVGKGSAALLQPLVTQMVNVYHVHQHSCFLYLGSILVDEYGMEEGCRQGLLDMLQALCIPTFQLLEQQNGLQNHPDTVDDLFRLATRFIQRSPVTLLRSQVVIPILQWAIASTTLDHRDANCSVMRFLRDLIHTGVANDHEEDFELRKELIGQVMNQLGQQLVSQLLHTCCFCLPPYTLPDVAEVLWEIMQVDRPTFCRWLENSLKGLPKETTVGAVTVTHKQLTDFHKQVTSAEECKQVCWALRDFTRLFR

[3] = system: HeLa cell extract proteins
[4] = target: T3, HeLa cell extract proteins (Homo sapiens, UniProt Q969X5)
T3 construct: endogenous in cells; host or cells: HeLa cell extract
T3 sequence (Q969X5 1-290): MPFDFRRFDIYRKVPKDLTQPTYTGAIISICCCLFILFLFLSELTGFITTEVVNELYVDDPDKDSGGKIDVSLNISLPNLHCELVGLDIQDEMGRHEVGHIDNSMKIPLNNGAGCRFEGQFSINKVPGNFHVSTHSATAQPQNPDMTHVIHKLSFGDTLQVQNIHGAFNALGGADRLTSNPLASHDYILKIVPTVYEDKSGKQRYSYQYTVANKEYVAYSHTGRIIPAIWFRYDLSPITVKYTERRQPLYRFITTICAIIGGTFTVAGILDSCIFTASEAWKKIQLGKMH

[5] = target: T4, HeLa cell extract proteins (Homo sapiens, UniProt P53621)
T4 construct: endogenous in cells; host or cells: HeLa cell extract
T4 sequence (P53621 1-1224): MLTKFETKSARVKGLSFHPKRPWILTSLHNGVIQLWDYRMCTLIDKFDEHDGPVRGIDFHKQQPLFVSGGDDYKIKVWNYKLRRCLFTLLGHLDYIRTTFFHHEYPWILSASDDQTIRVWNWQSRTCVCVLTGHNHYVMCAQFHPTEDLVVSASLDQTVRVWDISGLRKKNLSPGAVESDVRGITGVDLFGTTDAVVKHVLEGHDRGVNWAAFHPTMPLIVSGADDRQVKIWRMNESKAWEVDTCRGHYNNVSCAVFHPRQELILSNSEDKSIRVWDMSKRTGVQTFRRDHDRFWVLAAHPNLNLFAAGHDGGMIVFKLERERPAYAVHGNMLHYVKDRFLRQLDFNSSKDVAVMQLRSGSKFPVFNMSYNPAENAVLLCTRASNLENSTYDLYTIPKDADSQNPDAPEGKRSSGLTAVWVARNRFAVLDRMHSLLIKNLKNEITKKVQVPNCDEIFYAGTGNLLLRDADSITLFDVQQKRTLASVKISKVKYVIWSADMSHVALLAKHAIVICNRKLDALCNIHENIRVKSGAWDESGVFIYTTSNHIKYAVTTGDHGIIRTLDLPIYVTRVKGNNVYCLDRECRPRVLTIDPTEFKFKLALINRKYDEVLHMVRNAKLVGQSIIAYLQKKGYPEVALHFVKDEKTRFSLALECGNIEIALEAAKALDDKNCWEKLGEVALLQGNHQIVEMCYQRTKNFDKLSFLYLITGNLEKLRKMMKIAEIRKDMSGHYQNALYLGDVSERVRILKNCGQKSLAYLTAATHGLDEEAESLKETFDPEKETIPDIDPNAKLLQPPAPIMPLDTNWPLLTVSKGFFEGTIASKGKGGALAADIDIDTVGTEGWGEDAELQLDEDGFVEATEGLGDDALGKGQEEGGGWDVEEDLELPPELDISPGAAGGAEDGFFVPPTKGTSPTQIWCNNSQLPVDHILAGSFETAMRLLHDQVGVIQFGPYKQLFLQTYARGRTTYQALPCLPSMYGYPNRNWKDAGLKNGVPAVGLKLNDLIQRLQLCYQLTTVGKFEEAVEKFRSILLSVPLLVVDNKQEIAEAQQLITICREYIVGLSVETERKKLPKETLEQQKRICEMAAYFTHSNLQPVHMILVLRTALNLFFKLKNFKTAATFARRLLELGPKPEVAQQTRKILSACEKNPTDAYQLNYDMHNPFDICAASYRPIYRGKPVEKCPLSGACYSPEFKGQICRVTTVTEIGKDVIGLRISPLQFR

[6] = HeLa, captured protein LOC442497
[7] = HeLa, protein ABCB7 (ISOFORM 2 OF ATP-BINDING CASSETTE SUB-FAMILY B MEMBER 7, MIT[…])
[8] = HeLa, protein ASAH1 (N-ACYLSPHINGOSINE AMIDOHYDROLASE (ACID CERAMIDASE) 1 ISOFORM B)
[9] = HeLa, protein MYL6 (ISOFORM SMOOTH MUSCLE OF MYOSIN LIGHT POLYPEPTIDE 6)
[10] = HeLa, protein PSMA1 (ISOFORM LONG OF […] ALPHA TYPE 1)
[11] = HeLa, protein PSME1 ([…] SUBUNIT 1 ISOFORM 2)
[12] = HeLa, protein A8MV93_HUMAN (SIMILAR TO CYTOCHROME C.)
[13] = HeLa, protein CTNNA1 (ISOFORM 2 OF CATENIN ALPHA-1.)
[14] = HeLa, protein EIF5A (ISOFORM 2 OF EUKARYOTIC TRANSLATION INITIATION FACTOR 5A-1.)
[15] = HeLa, protein LOC654188 (SIMILAR TO PEPT[…] A-LIKE.)
[16] = HeLa, protein NME1-NME2 (NUCLEOSIDE DIPHOSPHATE KINASE.)

| Structure (SMILES) | fold changes relative to vehicle control ([3]; HeLa, captured protein EIF1AP1) | fold changes relative to vehicle control [3, 6] | fold changes relative to vehicle control [3, 7] | fold changes relative to vehicle control [3, 8] | fold changes relative to vehicle control ([3]; HeLa, protein LOC654188) | fold changes relative to vehicle control [3, 9] | fold changes relative to vehicle control ([3]; HeLa, protein NME1-NME2) | fold changes relative to vehicle control [3, 10] | fold changes relative to vehicle control [3, 11] | fold changes relative to vehicle control ([3]; HeLa, protein RPLP0-LIKE) | fold changes relative to vehicle control ([5]; protein COPA, HeLa) | fold changes relative to vehicle control ([1]; captured protein JTV1, HeLa) | fold changes relative to vehicle control ([2]; HeLa, protein TNPO3) | fold changes relative to vehicle control [3, 12] [fold] | fold changes relative to vehicle control [3, 13] [fold] | fold changes relative to vehicle control ([3]; HeLa, protein LOC646960) | fold changes relative to vehicle control ([3]; protein EIF1AP1, HeLa) | fold changes relative to vehicle control ([3]; protein LOC442497, HeLa) | fold changes relative to vehicle control ([3]; protein RPLP0-LIKE, HeLa) | fold changes relative to vehicle control ([4]; captured protein ERGIC1, HeLa) | further results |
| --- | --- | --- | --- | --- | --- | --- | --- | --- | --- | --- | --- | --- | --- | --- | --- | --- | --- | --- | --- | --- | --- |
| Nc1nc2c(c(=O)[nH]1)N(C=O)C(CNc1ccc(C(=O)N[C@@H](CCC(=O)O)C(=O)O)cc1)CN2 (stereo partly drawn) [LEU, leucovorin] | 0.99 | 1.06 | 1.18 | 1.17 | 0.98 | 1.06 | 0.99 | 1.18 | 1.03 | 0.86 | 0.81 |  |  |  |  |  |  |  |  |  | fold changes relative to vehicle control ([1]; HeLa, captured protein JTV1): 1.04; fold changes relative to vehicle control ([2]; HeLa, captured protein TNPO3): 0.95; fold changes relative to vehicle control ([3]; HeLa, protein GTPBP3 (ISOFORM 2 OF TRNA MODIFICATION GTPASE GTPBP3, MITOCHONDRIAL PRECURSOR)): 0.27; fold changes relative to vehicle control ([3]; protein HIST2H2BA, HeLa): 0.92; fold changes relative to vehicle control ([3]; protein LOC646960, HeLa): 0.84; fold changes relative to vehicle control ([4]; protein ERGIC1, HeLa): 0.77 |
| Nc1nc2[nH]cc(CCc3ccc(C(=O)N[C@@H](CCC(=O)O)C(=O)O)cc3)c2c(=O)[nH]1 [PTX, pemetrexed] | 0.95 | 1.08 | 1.19 | 1.19 | 1.12 | 1.4 | 1.08 | 1.09 | 1 | 0.92 |  |  |  |  |  |  |  |  |  |  | fold changes relative to vehicle control [1]: 0.9; fold changes relative to vehicle control [2]: 0.96; fold changes relative to vehicle control ([3]; HeLa, protein GTPBP3 (ISOFORM 2 OF TRNA MO[…] GTPBP3, MIT[…])): 0.49; fold changes relative to vehicle control ([3]; protein HIST2H2BA, HeLa): 0.94; fold changes relative to vehicle control ([3]; protein LOC646960, HeLa): 0.95; fold changes relative to vehicle control [4]: 0.85; fold changes relative to vehicle control [5]: 0.82 |
| CCCCCCOc1ccc(Cc2cnc(N)nc2N)cc1 [compound 1] |  |  |  |  |  |  |  |  |  |  | 1.07 | 1.04 | 0.93 | 1.4 | 1.26 | 1.15 | 1.3 | 1.12 | 0.94 | 0.94 | fold changes relative to vehicle control [3, 14]: 1.5 fold; fold changes relative to vehicle control [3, 15]: 1.34 fold; fold changes relative to vehicle control [3, 16]: 1.36 fold |
| CCCCCCOc1cccc(Cc2cnc(N)nc2N)c1 [compound 2] |  |  |  |  |  |  |  |  |  |  | 1.31 | 1.16 | 0.9 | 2.46 | 2.1 | 1.08 | 1.77 | 1.38 | 1.23 | 1.02 | fold changes relative to vehicle control [3, 14]: 2.05 fold; fold changes relative to vehicle control ([3]; HeLa, protein LOC654188 (SIMILAR TO PEPTIDYLPROLYL ISOMERASE A-LIKE.)): 2.15 fold; fold changes relative to vehicle control [3, 16]: 2.13 fold |
| Nc1nc2cccc(-c3ccccc3)c2n1Cc1ccc(Cl)c(Cl)c1 [compound 3] |  |  |  |  |  |  |  |  |  |  | 0.93 | 0.89 | 1.01 | 1.12 | 2.07 | 1.08 | 0.97 | 1.03 | 1.04 | 1.1 | fold changes relative to vehicle control [3]: 0.88 fold and 1 fold; fold changes relative to vehicle control [3, 15]: 0.91 fold |
